Experimental data published in US9771337B2, “Neprilysin inhibitors” (THERAVANCE BIOPHARMA R&D IP, LLC, priority 2011, dated 2017).

biological target: T1, human NEP (Homo sapiens, UniProt P08473); test: In vitro enzyme inhibition assay, inhibitor potency at human NEP; format: biochemical; conditions: pKi values at human NEP; recombinant human NEP, fluorogenic peptide substrate 10 μM, 37° C.
T1 construct: purchased R&D Systems, Minneapolis, Minn; 1182-ZN
Procedure: The inhibitory activities of compounds at human and rat neprilysin (EC 3.4.24.11; NEP) and human angiotensin converting enzyme (ACE) were determined using in vitro assays as described below.
Recombinant human NEP and recombinant human ACE were obtained commercially (R&D Systems, Minneapolis, Minn., catalog numbers 1182-ZN and 929-ZN, respectively). The fluorogenic peptide substrate Mca-D-Arg-Arg-Leu-Dap-(Dnp)-OH (Medeiros et al. (1997) Braz. J. Med. Biol. Res. 30:1157-62; Anaspec, San Jose, Calif.) and Abz-Phe-Arg-Lys(Dnp)-Pro-OH (Araujo et al. (2000) Biochemistry 39:8519-8525; Bachem, Torrance, Calif.) were used in the NEP and ACE assays respectively.
The assays were performed in 384-well white opaque plates at 37° C. using the fluorogenic peptide substrates at a concentration of 10 μM in Assay Buffer (NEP: 50 mM HEPES, pH 7.5, 100 mM NaCl, 0.01% polyethylene glycol sorbitan monolaurate (Tween-20), 10 μM ZnSO4; ACE: 50 mM HEPES, pH 7.5, 100 mM NaCl, 0.01% Tween-20, 1 μM ZnSO4).
Test compounds were assayed over the range of concentrations from […] to 20 μM. Test compounds were added to the enzymes and incubated for 30 minute at 37° C. prior to initiating the reaction by the addition of substrate. Reactions were terminated after 20 minutes of incubation at 37° C. by the addition of glacial acetic acid to a final concentration of 3.6% (v/v).
Plates were read on a fluorometer with excitation and emission wavelengths set to 320 nm and 405 nm, respectively. Inhibition constants were obtained by nonlinear regression of the data using the equation (GraphPad Software, Inc., San Diego, Calif.): v=v0/[1+(I/K′)] where v is the reaction rate, v0 is the uninhibited reaction rate, I is the inhibitor concentration and K′ is the apparent inhibition constant.
Compounds of the invention were tested in this assay and found to have pKi values at human NEP as follows.

T1 sequence (P08473 whole entry): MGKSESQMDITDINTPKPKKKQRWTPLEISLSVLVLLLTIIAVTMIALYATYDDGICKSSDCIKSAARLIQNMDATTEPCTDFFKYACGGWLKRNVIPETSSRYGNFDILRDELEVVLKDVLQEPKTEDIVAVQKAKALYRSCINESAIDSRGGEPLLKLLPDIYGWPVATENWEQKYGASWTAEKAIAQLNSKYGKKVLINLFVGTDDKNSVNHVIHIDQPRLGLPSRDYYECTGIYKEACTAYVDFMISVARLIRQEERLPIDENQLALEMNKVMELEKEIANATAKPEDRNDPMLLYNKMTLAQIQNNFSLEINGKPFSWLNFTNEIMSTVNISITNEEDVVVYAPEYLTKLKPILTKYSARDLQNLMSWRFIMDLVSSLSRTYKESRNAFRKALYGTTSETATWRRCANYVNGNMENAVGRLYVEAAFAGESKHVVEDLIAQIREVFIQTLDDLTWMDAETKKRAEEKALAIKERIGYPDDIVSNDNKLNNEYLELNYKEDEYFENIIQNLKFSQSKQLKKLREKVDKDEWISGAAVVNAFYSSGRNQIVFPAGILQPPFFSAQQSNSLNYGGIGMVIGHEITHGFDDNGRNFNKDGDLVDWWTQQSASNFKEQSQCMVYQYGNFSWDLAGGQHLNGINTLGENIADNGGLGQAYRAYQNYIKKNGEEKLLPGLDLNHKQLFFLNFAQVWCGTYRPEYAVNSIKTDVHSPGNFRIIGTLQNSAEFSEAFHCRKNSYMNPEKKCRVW

For `O=C(N[C@H](Cc1ccccc1Cl)[C@@H](O)C(=O)O)c1cc(=O)n(Cc2ccc(Cl)cc2F)o1` [Example 2-16, (2R,3R)-3-{[2-(4-Chloro-2-fluoro-benzyl)-3-oxo-2,3-dihydro-isoxazole-5-carbonyl]-amino}-4-(2-chloro-phenyl)-2-hydroxy-butyric acid], which Ki is on record?
The Ki was 1.26 to 10 nM.

For `COc1ccc(Cn2oc(C(=O)N[C@H](Cc3ccccc3Cl)[C@@H](O)C(=O)O)cc2=O)c(F)c1F` [Example 2-17, (2R,3R)-4-(2-Chloro-phenyl)-3-{[2-(2,3-difluoro-4-methoxy-benzyl)-3-oxo-2,3-dihydro-isoxazole-5-carbonyl]-amino}-2-hydroxy-butyric acid], which Ki is on record?
The Ki was 1.26 to 10 nM.

For `O=C(N[C@H](Cc1ccccc1Cl)[C@@H](O)C(=O)O)c1cnc(-c2ccccc2)o1` [Example 2-18, (2R,3R)-4-(2-Chloro-phenyl)-2-hydroxy-3-[(2-phenyl-oxazole-5-carbonyl)-amino]-butyric acid], which Ki is on record?
The Ki was 12.6 to 100 nM.

How did the Ki turn out when `O=C(N[C@H](Cc1ccccc1Cl)[C@H](O)C(=O)O)c1cnn[nH]1` [Example 2-19, (2S,3R)-4-(2-Chloro-phenyl)-2-hydroxy-3-[(3H-[1,2,3]triazole-4-carbonyl)-amino]-butyric acid] was run?
Its Ki is 12.6 to 100 nM.

For `O=C(N[C@H](Cc1ccccc1Cl)[C@@H](O)C(=O)O)c1cn(Cc2ccccc2)nn1` [Example 2-20, (2R,3R)-3-[(1-Benzyl-1H-[1,2,3]triazole-4-carbonyl)-amino]-4-(2-chloro-phenyl)-2-hydroxy-butyric acid], which Ki is on record?
Its Ki is 12.6 to 100 nM.

How did the Ki turn out when `O=C(N[C@H](Cc1ccccc1Cl)[C@@H](O)C(=O)O)c1cn(O)nn1` [Example 2-21, (2R,3R)-4-(2-Chloro-phenyl)-2-hydroxy-3-[(1-hydroxy-1H-[1,2,3]triazole-4-carbonyl)-amino]-butyric acid] was run?
The Ki was 12.6 to 100 nM.

With `Cc1nc(C(=O)N[C@H](Cc2ccccc2Cl)[C@@H](O)C(=O)O)nn1-c1ccc(Cl)cc1` [Example 2-22, (2R,3R)-4-(2-Chloro-phenyl)-3-{[1-(4-chloro-phenyl)-5-methyl-1H-[1,2,4]triazole-3-carbonyl]-amino}-2-hydroxy-butyric acid] as the compound, how does the Ki read?
Its Ki is 12.6 to 100 nM.

For `O=C(N[C@H](Cc1ccccc1Cl)[C@@H](O)C(=O)O)c1nn(Cc2ccc(Cl)cc2F)c(=O)[nH]1` [Example 2-23, (2R,3R)-3-{[1-(4-Chloro-2-fluoro-benzyl)-5-oxo-4,5-dihydro-1H-[1,2,4]triazole-3-carbonyl]-amino}-4-(2-chloro-phenyl)-2-hydroxy-butyric acid], which Ki is on record?
The Ki was 12.6 to 100 nM.

How did the Ki turn out when `O=C(N[C@H](Cc1ccccc1Cl)[C@@H](O)C(=O)O)c1cc2n(n1)COc1ccccc1-2` [Example 2-24, (2R,3R)-4-(2-Chloro-phenyl)-2-hydroxy-3-[(5-oxa-3,3a-diazacyclopenta[a]naphthalene-2-carbonyl)-amino]-butyric acid] was run?
The Ki was 1.26 to 10 nM.

For `O=C(N[C@H](Cc1ccccc1Cl)[C@@H](O)C(=O)O)c1cc2n(n1)CCOc1ccccc1-2` [Example 2-26, (2R,3R)-4-(2-Chloro-phenyl)-3-[(4,5-dihydro-6-oxa-3,3a-diaza-benzo[e]azulene-2-carbonyl)-amino]-2-hydroxy-butyric acid], which Ki is on record?
The Ki was 1.26 to 10 nM.

Which Ki does the source give for `O=C(N[C@H](Cc1ccccc1Cl)[C@H](O)C(=O)O)c1cc(F)c2nn[nH]c2c1` [Example 2-27, (2S,3R)-4-(2-Chloro-phenyl)-3-[(7-fluoro-3H-benzotriazole-5-carbonyl)-amino]-2-hydroxy-butyric acid] here?
The Ki was 1.26 to 10 nM.

Which Ki does the source give for `O=C(N[C@H](Cc1ccccc1Cl)[C@H](O)C(=O)O)c1cc(Cl)c2nn[nH]c2c1` [Example 2-28, (2S,3R)-3-[(7-Chloro-3H-benzotriazole-5-carbonyl)-amino]-4-(2-chloro-phenyl)-2-hydroxy-butyric acid] here?
The Ki was 1.26 to 10 nM.

For `O=C(N[C@H](Cc1ccccc1Cl)[C@H](O)C(=O)O)c1ccc2nn[nH]c2c1` [Example 2-29, (2S,3R)-3-[(3H-Benzotriazole-5-carbonyl)-amino]-4-(2-chloro-phenyl)-2-hydroxy-butyric acid], which Ki is on record?
The Ki was 12.6 to 100 nM.

`Cc1cc(C(=O)N[C@H](Cc2ccccc2Cl)[C@H](O)C(=O)O)cc2[nH]nnc12` [Example 2-30, (2S,3R)-4-(2-Chloro-phenyl)-2-hydroxy-3-[(7-methyl-3H-benzotriazole-5-carbonyl)-amino]-butyric acid] was tested. Which Ki did it give?
The Ki was 12.6 to 100 nM.

How did the Ki turn out when `O=C(N[C@H](Cc1ccccc1Cl)[C@@H](O)C(=O)O)c1cc(C(=O)O)c2[nH]nnc2c1` [Example 2-31, 6-[(1R,2R)-2-Carboxy-1-(2-chloro-benzyl)-2-hydroxy-ethylcarbamoyl]-3H-benzotriazole-4-carboxylic acid] was run?
Its Ki is 12.6 to 100 nM.

For `O=C(O)c1ccc(C(=O)N[C@H](Cc2ccccc2Cl)[C@@H](O)C(=O)O)o1` [Example 2-32, 5-[(1R,2R)-2-Carboxy-1-(2-chloro-benzyl)-2-hydroxy-ethylcarbamoyl]-furan-2-carboxylic acid], which Ki is on record?
Its Ki is 12.6 to 100 nM.

Which Ki does the source give for `O=C(N[C@H](Cc1ccccc1Cl)[C@@H](O)C(=O)O)c1ccc2ncc(Br)n2c1` [Example 2-33, (2R,3R)-3-[(3-Bromo-imidazo[1,2-a]pyridine-6-carbonyl)-amino]-4-(2-chloro-phenyl)-2-hydroxy-butyric acid] here?
Its Ki is 12.6 to 100 nM.

How did the Ki turn out when `O=C(N[C@H](Cc1ccccc1Cl)[C@@H](O)C(=O)O)c1cnc(O)cn1` [Example 2-34, (2R,3R)-4-(2-Chloro-phenyl)-2-hydroxy-3-[(5-hydroxy-pyrazine-2-carbonyl)-amino]-butyric acid] was run?
The Ki was 12.6 to 100 nM.

How did the Ki turn out when `O=C(N[C@H](Cc1ccccc1Cl)[C@@H](O)C(=O)O)c1cnc(O)nc1` [Example 2-35, (2R,3R)-4-(2-Chloro-phenyl)-2-hydroxy-3-[(2-hydroxy-pyrimidine-5-carbonyl)-amino]-butyric acid] was run?
The Ki was ≤ 1 nM.

For `O=C(N[C@H](Cc1ccccc1Cl)[C@@H](O)C(=O)O)c1cnc2[nH]cnc2c1` [Example 2-36, (2R,3R)-4-(2-Chloro-phenyl)-2-hydroxy-3-[(3H-imidazo[4,5-b]pyridine-6-carbonyl)-amino]-butyric acid], which Ki is on record?
The Ki was 12.6 to 100 nM.

Which Ki does the source give for `O=C(N[C@H](Cc1ccccc1Cl)[C@@H](O)C(=O)O)c1cnc2nn[nH]c2c1` [Example 2-37, (2R,3R)-4-(2-Chloro-phenyl)-2-hydroxy-3-[(1H-[1,2,3]triazolo[4,5-b]pyridine-6-carbonyl)-amino]-butyric acid] here?
Its Ki is 1.26 to 10 nM.

Which Ki does the source give for `O=C1CCC(C(=O)N[C@H](Cc2ccccc2Cl)[C@@H](O)C(=O)O)=NN1` [Example 2-39, (2R,3R)-4-(2-Chloro-phenyl)-2-hydroxy-3-[(6-oxo-1,4,5,6-tetrahydro-pyridazine-3-carbonyl)-amino]-butyric acid] here?
The Ki was 12.6 to 100 nM.

For `O=C(N[C@H](Cc1ccccc1C(F)(F)F)[C@@H](O)C(=O)O)c1cnc2[nH]nnc2c1` [Example 3, (2R,3R)-2-Hydroxy-3-[(3H-[1,2,3]triazolo[4,5-b]pyridine-6-carbonyl)-amino]-4-(2-trifluoromethyl-phenyl)-butyric acid], which Ki is on record?
The Ki was 1.26 to 10 nM.

Which Ki does the source give for `O=C(N[C@H](Cc1ccccc1)[C@@H](O)C(=O)O)c1ccc2c(c1)N1CCCC1C(=O)N2` (stereo partly drawn) [Example 5-1, (2R,3R)-2-Hydroxy-3-[(4-oxo-1,2,3,3a,4,5-hexahydro-pyrrolo[1,2-a]quinoxaline-8-carbonyl)-amino]-4-phenyl-butyric acid] here?
The Ki was 12.6 to 100 nM.
